Results as given in ChEMBL document CHEMBL5543084, “Development of cannabidiol derivatives as potent broad-spectrum antibacterial agents with membrane-disruptive mechanism” (Eur J Med Chem, 2024).
Converted amounts (≈) assume the structure as drawn.

Experiments:
Staphylococcus aureus [1] = experiment: Antibacterial activity against Staphylococcus aureus ATCC 29213 assessed as inhibition of bacterial growth incubated for 24 hrs by broth dilution method; type: functional
Staphylococcus aureus [2] = experiment: Antibacterial activity against methicillin-resistant Staphylococcus aureus N315 assessed as inhibition of bacterial growth incubated for 24 hrs by broth dilution method; type: functional
Staphylococcus aureus [3] = experiment: Antibacterial activity against methicillin-resistant Staphylococcus aureus NCTC 10442 assessed as inhibition of bacterial growth incubated for 24 hrs by broth dilution method; type: functional
Escherichia coli = experiment: Antibacterial activity against Escherichia coli ATCC 25922 assessed as inhibition of bacterial growth incubated for 24 hrs by broth dilution method; type: functional
Acinetobacter baumannii [4] = experiment: Antibacterial activity against Acinetobacter baumannii ATCC 17978 assessed as inhibition of bacterial growth incubated for 24 hrs by broth dilution method; type: functional
Acinetobacter baumannii [5] = experiment: Antibacterial activity against Acinetobacter baumannii R2889 assessed as inhibition of bacterial growth incubated for 24 hrs by broth dilution method; type: functional
Klebsiella pneumoniae [6] = experiment: Antibacterial activity against Klebsiella pneumoniae ATCC 14581 assessed as inhibition of bacterial growth incubated for 24 hrs by broth dilution method; type: functional
Klebsiella pneumoniae [7] = experiment: Antibacterial activity against Klebsiella pneumoniae ATCC 10031 assessed as inhibition of bacterial growth incubated for 24 hrs by broth dilution method; type: functional
Pseudomonas aeruginosa = experiment: Antibacterial activity against Pseudomonas aeruginosa ATCC 9027 assessed as inhibition of bacterial growth incubated for 24 hrs by broth dilution method; type: functional
[8] = Hemolytic activity against rabbit blood cells incubated for 1 hr relative to control; type: toxicity, cell-based, Oryctolagus cuniculus, Erythrocyte; conditions: rabbit blood cells (erythrocytes)

| Structure (SMILES) | MIC (Staphylococcus aureus [1]) | MIC (Staphylococcus aureus [2]) | MIC (Staphylococcus aureus [3]) | MIC (Escherichia coli) | MIC (Acinetobacter baumannii [4]) | MIC (Acinetobacter baumannii [5]) | MIC (Klebsiella pneumoniae [6]) | MIC (Klebsiella pneumoniae [7]) | MIC (Pseudomonas aeruginosa) | HC50 at 1 h [8] |
| --- | --- | --- | --- | --- | --- | --- | --- | --- | --- | --- |
| C=C(C)[C@@H]1CCC(C)=C[C@H]1c1c(OCCCCN)cc(CCCCC)cc1OCCCCN | 3.12 µg/mL (≈ 6.84 µM) | 3.12 µg/mL (≈ 6.84 µM) | 3.12 µg/mL (≈ 6.84 µM) | 3.12 µg/mL (≈ 6.84 µM) | 3.12 µg/mL (≈ 6.84 µM) | 3.12 µg/mL (≈ 6.84 µM) | 12.5 µg/mL (≈ 27.4 µM) | 6.25 µg/mL (≈ 13.7 µM) | 50 µg/mL (≈ 109 µM) | 141 µg/mL |
| C=C(C)[C@@H]1CCC(C)=C[C@H]1c1c(OCCCCN(C)CCCN(C)CCCNC)cc(CCCCC)cc1OCCCCN(C)CCCN(C)CCCNC | 1.56 µg/mL (≈ 2.03 µM) | 3.12 µg/mL (≈ 4.06 µM) | 1.56 µg/mL (≈ 2.03 µM) | 3.12 µg/mL (≈ 4.06 µM) | 6.25 µg/mL (≈ 8.12 µM) | 3.12 µg/mL (≈ 4.06 µM) | 6.25 µg/mL (≈ 8.12 µM) | 6.25 µg/mL (≈ 8.12 µM) | 6.25 µg/mL (≈ 8.12 µM) | > 200 µg/mL |
| C=C(C)[C@@H]1CCC(C)=C[C@H]1c1c(OCCCN)cc(CCCCC)cc1OCCCN | 6.25 µg/mL (≈ 14.6 µM) | 6.25 µg/mL (≈ 14.6 µM) | 6.25 µg/mL (≈ 14.6 µM) | 6.25 µg/mL (≈ 14.6 µM) | 6.25 µg/mL (≈ 14.6 µM) | 12.5 µg/mL (≈ 29.2 µM) | 12.5 µg/mL (≈ 29.2 µM) | 6.25 µg/mL (≈ 14.6 µM) | > 50 µg/mL | > 200 µg/mL |
| C=C(C)[C@@H]1CCC(C)=C[C@H]1c1c(OCC(=O)N[C@@H](CCCNC(=N)N)C(N)=O)cc(CCCCC)cc1OCC(=O)N[C@@H](CCCNC(=N)N)C(N)=O | 12.5 µg/mL (≈ 16.9 µM) | 12.5 µg/mL (≈ 16.9 µM) | 12.5 µg/mL (≈ 16.9 µM) | > 50 µg/mL | 50 µg/mL (≈ 67.5 µM) | > 50 µg/mL | > 50 µg/mL | > 50 µg/mL | 50 µg/mL (≈ 67.5 µM) | > 200 µg/mL |
| C=C(C)[C@@H]1CCC(C)=C[C@H]1c1c(OCCCCCCN)cc(CCCCC)cc1OCCCCCCN | 1.56 µg/mL (≈ 3.04 µM) | 1.56 µg/mL (≈ 3.04 µM) | 0.78 µg/mL (≈ 1.52 µM) | 3.12 µg/mL (≈ 6.09 µM) | 3.12 µg/mL (≈ 6.09 µM) | 3.12 µg/mL (≈ 6.09 µM) | 0.78 µg/mL (≈ 1.52 µM) | 1.56 µg/mL (≈ 3.04 µM) | > 50 µg/mL | 59.7 µg/mL |
| C=C(C)[C@@H]1CCC(C)=C[C@H]1c1c(OCCCCN2CCSCC2)cc(CCCCC)cc1OCCCCN1CCSCC1 | > 50 µg/mL | > 50 µg/mL | > 50 µg/mL | > 100 µg/mL | > 50 µg/mL | > 50 µg/mL | > 50 µg/mL | > 50 µg/mL | > 50 µg/mL | > 200 µg/mL |
| C=C(C)[C@@H]1CCC(C)=C[C@H]1c1c(OCC(=O)N[C@@H](CCCCN)C(=O)OC)cc(CCCCC)cc1OCC(=O)N[C@@H](CCCCN)C(=O)OC | 25 µg/mL (≈ 35 µM) | 25 µg/mL (≈ 35 µM) | 25 µg/mL (≈ 35 µM) | 50 µg/mL (≈ 69.9 µM) | 50 µg/mL (≈ 69.9 µM) | 50 µg/mL (≈ 69.9 µM) | > 50 µg/mL | 50 µg/mL (≈ 69.9 µM) | > 50 µg/mL | 116 µg/mL |
| C=C(C)[C@@H]1CCC(C)=C[C@H]1c1c(OCCCCN2CCCC2)cc(CCCCC)cc1OCCCCN1CCCC1 | 3.12 µg/mL (≈ 5.53 µM) | 3.12 µg/mL (≈ 5.53 µM) | 3.12 µg/mL (≈ 5.53 µM) | 12.5 µg/mL (≈ 22.1 µM) | 25 µg/mL (≈ 44.3 µM) | 12.5 µg/mL (≈ 22.1 µM) | 25 µg/mL (≈ 44.3 µM) | 12.5 µg/mL (≈ 22.1 µM) | 25 µg/mL (≈ 44.3 µM) | 174 µg/mL |
| C=C(C)[C@@H]1CCC(C)=C[C@H]1c1c(OCCCCNC)cc(CCCCC)cc1OCCCCNC | 3.12 µg/mL (≈ 6.45 µM) | 3.12 µg/mL (≈ 6.45 µM) | 3.12 µg/mL (≈ 6.45 µM) | 50 µg/mL (≈ 103 µM) | 25 µg/mL (≈ 51.6 µM) | 25 µg/mL (≈ 51.6 µM) | 50 µg/mL (≈ 103 µM) | 25 µg/mL (≈ 51.6 µM) | > 50 µg/mL | 107 µg/mL |
| C=C(C)[C@@H]1CCC(C)=C[C@H]1c1c(OCCCCCCCCCCNC(=N)N)cc(CCCCC)cc1OCCCCCCCCCCNC(=N)N | 50 µg/mL (≈ 70.5 µM) | > 50 µg/mL | 50 µg/mL (≈ 70.5 µM) | > 50 µg/mL | > 50 µg/mL | > 50 µg/mL | > 50 µg/mL | > 50 µg/mL | > 50 µg/mL | > 200 µg/mL |
| C=C(C)[C@@H]1CCC(C)=C[C@H]1c1c(OCCCCCCCCCCN)cc(CCCCC)cc1OCCCCCCCCCCN | > 50 µg/mL | > 50 µg/mL | > 50 µg/mL | > 50 µg/mL | > 50 µg/mL | > 50 µg/mL | > 50 µg/mL | > 50 µg/mL | > 50 µg/mL | > 200 µg/mL |
| C=C(C)[C@@H]1CCC(C)=C[C@H]1c1c(OCCCCN(C)CCCNC)cc(CCCCC)cc1OCCCCN(C)CCCNC | 1.56 µg/mL (≈ 2.49 µM) | 1.56 µg/mL (≈ 2.49 µM) | 1.56 µg/mL (≈ 2.49 µM) | 3.12 µg/mL (≈ 4.98 µM) | 1.56 µg/mL (≈ 2.49 µM) | 3.12 µg/mL (≈ 4.98 µM) | 3.12 µg/mL (≈ 4.98 µM) | 1.56 µg/mL (≈ 2.49 µM) | 3.12 µg/mL (≈ 4.98 µM) | > 200 µg/mL |
| C=C(C)[C@@H]1CCC(C)=C[C@H]1c1c(OCCCCCCCCCCBr)cc(CCCCC)cc1OCCCCCCCCCCBr | > 50 µg/mL | > 50 µg/mL | > 50 µg/mL | > 50 µg/mL | > 50 µg/mL | > 50 µg/mL | > 50 µg/mL | > 50 µg/mL | > 50 µg/mL | > 200 µg/mL |
